Experimental findings from ChEMBL document CHEMBL5728472, “Triazolopyrimidine, triazolopyridine compounds, and the composition thereof for treating PRC2-mediated diseases” (2021) are described below.

The structures appear in SMILES notation.

In this assay the target is Histone-binding protein RBBP4/Histone-lysine N-methyltransferase EZH2/Polycomb protein EED/Polycomb protein SUZ12 (Homo sapiens, UniProt O75530+Q09028+Q15022+Q15910). In words: TR-FRET Assay: The TR-FRET method was used to measure the PRC2 enzyme activity. First, the enzyme was mixed with compounds at different concentrations and incubated for 30 min at room temperature. The biotin-labeled histone H3 peptide substrate and the cofactor S-adenosylmethionine (SAM) were added to initiate the enzymatic reaction. After reaction was performed at room temperature for 4 hour, Acceptor and Donor were added and incubated for half an hour. The multifunctional microplate reader EnVision (Perkin Elmer Inc.) was used to detect the fluorescence signal. It is filed as protein-complex assay. Background: Time-resolved FRET reads energy transfer from a long-lived donor to a nearby acceptor.

The IC50 is the concentration that inhibits the measured activity by half.

Sequence of Histone-binding protein RBBP4/Histone-lysine N-methyltransferase EZH2/Polycomb protein EED/Polycomb protein SUZ12 (Q15910 whole entry): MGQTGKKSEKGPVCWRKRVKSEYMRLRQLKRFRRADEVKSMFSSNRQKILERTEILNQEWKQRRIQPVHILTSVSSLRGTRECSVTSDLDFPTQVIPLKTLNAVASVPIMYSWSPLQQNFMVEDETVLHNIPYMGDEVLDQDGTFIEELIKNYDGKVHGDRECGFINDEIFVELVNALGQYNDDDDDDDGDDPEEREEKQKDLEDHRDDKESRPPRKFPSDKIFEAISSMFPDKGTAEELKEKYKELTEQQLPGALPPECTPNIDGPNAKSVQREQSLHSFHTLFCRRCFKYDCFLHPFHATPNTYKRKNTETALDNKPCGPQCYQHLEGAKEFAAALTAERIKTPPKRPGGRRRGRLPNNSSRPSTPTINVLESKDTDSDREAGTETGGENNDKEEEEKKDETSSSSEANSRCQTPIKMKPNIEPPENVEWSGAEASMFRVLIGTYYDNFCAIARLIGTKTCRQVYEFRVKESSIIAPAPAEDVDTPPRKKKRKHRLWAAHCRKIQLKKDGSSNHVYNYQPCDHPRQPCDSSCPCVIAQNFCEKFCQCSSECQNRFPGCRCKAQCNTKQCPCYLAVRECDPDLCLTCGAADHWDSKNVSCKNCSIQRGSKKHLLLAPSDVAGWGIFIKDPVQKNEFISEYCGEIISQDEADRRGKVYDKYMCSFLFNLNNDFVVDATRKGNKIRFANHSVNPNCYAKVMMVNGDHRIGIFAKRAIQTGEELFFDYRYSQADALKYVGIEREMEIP
Sequence of Histone-binding protein RBBP4/Histone-lysine N-methyltransferase EZH2/Polycomb protein EED/Polycomb protein SUZ12 (O75530 whole entry): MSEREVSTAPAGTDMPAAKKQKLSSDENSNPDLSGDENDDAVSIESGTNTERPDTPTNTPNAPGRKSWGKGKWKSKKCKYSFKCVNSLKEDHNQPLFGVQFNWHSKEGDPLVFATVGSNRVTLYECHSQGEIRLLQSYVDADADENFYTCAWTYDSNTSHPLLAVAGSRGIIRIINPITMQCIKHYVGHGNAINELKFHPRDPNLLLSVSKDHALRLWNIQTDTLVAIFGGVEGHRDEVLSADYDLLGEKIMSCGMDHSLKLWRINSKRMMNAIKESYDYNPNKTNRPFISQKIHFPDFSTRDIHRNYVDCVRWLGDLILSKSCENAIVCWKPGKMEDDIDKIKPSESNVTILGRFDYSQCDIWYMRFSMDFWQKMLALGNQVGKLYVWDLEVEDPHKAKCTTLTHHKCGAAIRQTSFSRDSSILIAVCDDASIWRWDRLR
Sequence of Histone-binding protein RBBP4/Histone-lysine N-methyltransferase EZH2/Polycomb protein EED/Polycomb protein SUZ12 (Q15022 whole entry): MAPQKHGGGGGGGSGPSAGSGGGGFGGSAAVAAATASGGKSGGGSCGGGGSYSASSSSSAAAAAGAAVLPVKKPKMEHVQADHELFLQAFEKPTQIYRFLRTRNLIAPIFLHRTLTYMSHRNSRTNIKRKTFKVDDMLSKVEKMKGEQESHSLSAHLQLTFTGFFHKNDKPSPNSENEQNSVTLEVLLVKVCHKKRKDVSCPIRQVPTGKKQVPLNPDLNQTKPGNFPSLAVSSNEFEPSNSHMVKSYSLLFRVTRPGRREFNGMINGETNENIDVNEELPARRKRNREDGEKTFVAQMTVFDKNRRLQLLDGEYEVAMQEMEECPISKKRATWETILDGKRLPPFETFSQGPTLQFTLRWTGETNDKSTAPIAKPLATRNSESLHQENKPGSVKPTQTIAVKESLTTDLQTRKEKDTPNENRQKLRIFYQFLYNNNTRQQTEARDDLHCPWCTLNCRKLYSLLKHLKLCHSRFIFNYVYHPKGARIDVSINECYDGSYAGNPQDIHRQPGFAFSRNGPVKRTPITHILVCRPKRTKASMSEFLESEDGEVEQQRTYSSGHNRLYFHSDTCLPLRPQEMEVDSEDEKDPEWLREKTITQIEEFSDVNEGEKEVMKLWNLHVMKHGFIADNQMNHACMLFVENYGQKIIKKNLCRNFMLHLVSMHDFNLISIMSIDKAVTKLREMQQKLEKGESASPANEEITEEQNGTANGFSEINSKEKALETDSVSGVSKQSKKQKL
Sequence of Histone-binding protein RBBP4/Histone-lysine N-methyltransferase EZH2/Polycomb protein EED/Polycomb protein SUZ12 (Q09028 whole entry): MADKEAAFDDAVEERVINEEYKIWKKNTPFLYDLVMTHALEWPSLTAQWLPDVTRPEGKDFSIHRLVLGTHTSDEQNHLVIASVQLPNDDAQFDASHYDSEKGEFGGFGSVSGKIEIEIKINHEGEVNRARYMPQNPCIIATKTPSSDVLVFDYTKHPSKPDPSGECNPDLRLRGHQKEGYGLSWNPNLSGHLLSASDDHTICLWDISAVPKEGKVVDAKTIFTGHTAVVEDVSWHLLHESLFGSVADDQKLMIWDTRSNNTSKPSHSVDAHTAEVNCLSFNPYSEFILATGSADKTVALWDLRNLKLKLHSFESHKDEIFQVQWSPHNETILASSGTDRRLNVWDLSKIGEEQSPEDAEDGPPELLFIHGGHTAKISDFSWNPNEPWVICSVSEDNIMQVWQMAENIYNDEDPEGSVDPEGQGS

`COC(=O)N1CC=C(c2cnc(NCc3c(F)ccc4c3CCO4)n3cnnc23)CC1`: the IC50 came to 2.5 nM.

Take `Fc1ccc2c(c1CNc1ncc(C3=CCNCC3)c3nncn13)CCO2`: the IC50 was found to be 218 nM.
